Laboratory results as given in article PMC9822352, “Design, Synthesis and Evaluation of New Multifunctional Benzothiazoles as Photoprotective, Antioxidant and Antiproliferative Agents” (Molecules, 2022).

Legend:
[1] = system: melanoma Colo-38 cells; test: Cell growth inhibition assay, Colo-38; assay type: cell-based, human; conditions: for IC50: Homo sapiens, 24 h incubation, cell count; for SI Colo-38 (selectivity index): IC50 HaCat / IC50 Colo-38
Method: (§1) All synthesized compounds were tested in order to evaluate their in vitro antiproliferative activity. The human melanoma Colo-38 cell line was selected as a tumor skin model, while the immortalized human HaCaT keratinocytes were chosen as a control for the evaluation of the cytotoxicity towards non-cancerous cells and of the selectivity towards tumor cell lines. […] The selectivity index (SI) was also calculated and is the ratio between the IC50 of a given compound towards the non-cancerous cell line and the IC50 of the same compound towards the tumor cell line.
(§2) Cell growth inhibition assays were carried out using human melanoma Colo-38 cells and skin HaCat keratinocytes cells. Human melanoma Colo-38 cells were kindly provided by Dr. Patrizio Giacomini (Laboratory of Immunology, Regina Elena Institute, Rome, Italy). HaCat cells were kindly provided by Istituto Zooprofilattico Sperimentale della Lombardia e dell’Emilia Romagna, Brescia, Italy. Cell lines were seeded using concentrations of 40,000 cells/mL and 25,000 cells/mL, respectively. Colo-38 cells were maintained in RPMI 1640, supplemented with 10% fetal bovine serum (FBS), penicillin (100 Units mL^−1), and streptomycin (100 µg mL^−1). HaCat cells were maintained in DMEM, supplemented with 10% fetal bovine serum (FBS), penicillin (100 Units mL^−1), streptomycin (100 µg mL^−1) and glutamine (2 mM); the incubation was performed at 37 °C in a 5% CO2 atmosphere. Tested compounds were dissolved in MeOH/DMSO (1:1) to obtain 50 mM stock solutions and diluted before cell treatment in MeOH 100%. The tested compounds were added at serial dilutions to the cell cultures (from 0.1 to 100 µM) and incubated for 24 h further. Cells were then harvested, suspended in physiological solution, and counted with a Z2 Coulter Counter (Coulter Electronics, Hialeah, FL, USA). The cell number/mL and the IC50 values were determined when untreated cells were in the log phase of cell growth. Cells treated with vehicles and untreated cells were placed in each plate.

[2] = system: HaCat keratinocytes; test: Cell growth inhibition assay, HaCat; assay type: cell-based, human; conditions: Homo sapiens, HaCaT; 24 h incubation, cell count
Method: as §1, §2

[3] = Photostability study of 3% formulation (post-irradiation filtering parameters); conditions: 3% in formulation; for SPF / UVA/UVB / UVAPF / λc: post irradiation; for % SPFeff (residual percentage of SPF in vitro): SPF after/before irradiation × 100; for % UVA-PFeff (residual percentage of UVA-PF): UVA-PF after/before irradiation × 100
Description: To outline the efficacy and safety profile of a sunscreen formulation, it is essential to provide data relating to photostability. It is possible to provide photodegradation data by recording, pre- and post-irradiation, the transmittance of PMMA plates with finger-coat formulations subjected to a dose of UVA capable of causing erythema, according to the criteria of Garoli et al.. By means of Equations (2) and (3) it was possible to evaluate the residual percentage of SPF in vitro and of UVA-PF for all the prepared formulations. Of greatest interest are the values obtained for the derivatives BZTcin2 and BZTcin4.
To determine the photostability, the previously reported method was adopted, which consists in preparing each plate as mentioned above and subjecting it to solar irradiation quantified as the minimum dose of UVA equivalent to an effective radiant exposure of erythema. The protocol stipulates that, before and after exposure to sunlight, the transmission of the sun protection layer in the range of 290–400 nm is recorded.
Using Equations (2) and (3) below, the residual percentage of SPF in vitro (% SPFeff.) and UVA-PF (% UVA-PFeff.) have been obtained, which, if greater than or equal to 80, can classify a filter as photostable. %SPFeff. = in vitro SPFafter/in vitro SPFbefore × 100(2) %UVA − PFeff. = UVA − PFafter/UVA − PFbefore × 100(3)

[4] = system: HaCat cell line; test: Pro-apoptotic activity (Annexin V method), HaCat; assay type: cell-based, human; conditions: 24 h
Method: (§3) The Annexin V assay was conducted at two concentrations approaching IC50 values toward the selected cell lines reported in Table 3. The complete set of data is reported in Table 4, while representative data from the analysis of the corresponding Muse Analyzer plots are shown in Figure 2.
(§4) Apoptosis assays were performed with a Muse® Cell Analyzer instrument (Merck Millipore, Burlington, MA, USA) and the kit on Colo-38 and HaCat cell lines according to the manufacturer’s protocol. Cells were treated and exposed to the compounds for 24 h. This procedure is based on the detection of PS (PhosphatidylSerine) exposed on the external membrane of apoptotic cells by Annexin V. Four populations of cells can be distinguished using this assay: live, early apoptotic, late apoptotic and dead cells. The MUSE cell analyzer can discriminate “early” from “late” apoptosis since “early apoptotic cells” are Annexin V-positive and 7-AAD-negative, while “late apoptotic cells” are positive to both Annexin V and 7-AAD (7-aminoactinomycin D). The DNA intercalating molecule 7AAD (7-aminoactinomycin D) is used as an indicator of cell membrane integrity, since it binds DNA only in cells undergoing late apoptosis/death stage, when the membrane integrity is lost. Muse Annexin V and Dead Cell reagent were used to dilute the cells (1:1). After 20 min of incubation between cell samples and the kit at room temperature in the dark, the samples were analyzed using 0.01% Triton X-100 as positive control. The data were acquired and recorded using the Annexin V and Dead Cell software module (Millipore, Billerica, MA, USA).

[5] = system: Colo-38 cell line; test: Pro-apoptotic activity (Annexin V method), Colo-38; assay type: cell-based, human; conditions: for Dead (%) / Early Apoptosis (%) / Late Apoptosis (%): 24 h; for total apoptosis: Colo-38, 24 h, concentrations approaching IC50
Method: as §3, §4

Compound: O=C(N/N=C/c1ccc(O)cc1)c1nc2ccccc2s1 [BZTidr2, (E)-N′-(4-hydroxybenzylidene)benzo[d]thiazole-2-carbohydrazide]
- IC50 [1]: 92.6 ± 1.68 µM
- IC50 [2]: > 100 µM
- SPF [3]: 1.85
- UVA/UVB [3]: 1.09
- UVAPF [3]: 1.96
- λc [3]: 386 nm

Compound: COc1ccc(/C=C/C(=O)Nc2nc3ccccc3s2)cc1O [BZTcin5, (E)-N-(benzo[d]thiazol-2-yl)-3-(3-hydroxy-4-methoxyphenyl)acrylamide]
- Dead (%) ([4]; 50 µM): 0.19%
- Early Apoptosis (%) ([4]; 50 µM): 2.29%
- Late Apoptosis (%) ([4]; 50 µM): 3.73%
- Dead (%) ([4]; 100 µM): 0.20%
- Early Apoptosis (%) ([4]; 100 µM): 1.84%
- Late Apoptosis (%) ([4]; 100 µM): 5.00%
- Dead (%) ([5]; Colo-38, 10 µM): 3.75%
- Early Apoptosis (%) ([5]; Colo-38, 10 µM): 1.80%
- Late Apoptosis (%) ([5]; Colo-38, 10 µM): 21.40%
- Dead (%) ([5]; Colo-38, 50 µM): 3.50%
- Early Apoptosis (%) ([5]; Colo-38, 50 µM): 1.40%
- Late Apoptosis (%) ([5]; Colo-38, 50 µM): 16.25%
- total apoptosis [5]: > 20%
- IC50 [1]: 10 ± 6.12 µM
- SI Colo-38 (selectivity index) [1]: 8.33
- IC50 [2]: 83.3 ± 5.79 µM
- SPF [3]: 3.51
- UVA/UVB [3]: 1.11
- UVAPF [3]: 3.32
- λc [3]: 377 nm

Compound: O=C(/C=C/c1ccc(O)c(O)c1)Nc1nc2ccccc2s1 [BZTcin4, (E)-N-(benzo[d]thiazol-2-yl)-3-(3,4-dihydroxyphenyl)acrylamide]
- Dead (%) ([4]; 5 µM): 0.41%
- Early Apoptosis (%) ([4]; 5 µM): 1.83%
- Late Apoptosis (%) ([4]; 5 µM): 3.05%
- Dead (%) ([4]; 10 µM): 1.96%
- Early Apoptosis (%) ([4]; 10 µM): 1.13%
- Late Apoptosis (%) ([4]; 10 µM): 15.56%
- Dead (%) ([5]; Colo-38, 5 µM): 1.00%
- Early Apoptosis (%) ([5]; Colo-38, 5 µM): 3.85%
- Late Apoptosis (%) ([5]; Colo-38, 5 µM): 8.50%
- Dead (%) ([5]; Colo-38, 10 µM): 1.35%
- Early Apoptosis (%) ([5]; Colo-38, 10 µM): 3.20%
- Late Apoptosis (%) ([5]; Colo-38, 10 µM): 8.00%
- total apoptosis [5]: does not induce apoptosis at any of the concentrations tested
- IC50 [1]: 8.31 ± 0.76 µM
- SI Colo-38 (selectivity index) [1]: 4.59
- IC50 [2]: 38.1 ± 5.13 µM
- % SPFeff (residual percentage of SPF in vitro) [3]: 86.91%
- % UVA-PFeff (residual percentage of UVA-PF) [3]: 93.25%
- SPF [3]: 8.43
- UVA/UVB [3]: 1.39
- UVAPF [3]: 10.63
- λc [3]: 380 nm

Compound: O=C(/C=C/c1ccc(O)cc1)Nc1nc2ccccc2s1 [BZTcin2, (E)-N-(benzo[d]thiazol-2-yl)-3-(4-hydroxyphenyl)acrylamide]
- Dead (%) ([5]; Colo-38, 5 µM): 2.05%
- Early Apoptosis (%) ([5]; Colo-38, 5 µM): 1.70%
- Late Apoptosis (%) ([5]; Colo-38, 5 µM): 16.90%
- Dead (%) ([5]; Colo-38, 50 µM): 4.45%
- Early Apoptosis (%) ([5]; Colo-38, 50 µM): 1.85%
- total apoptosis [5]: over 30%
- IC50 [1]: 35.2 ± 5.52 µM
- IC50 [2]: > 100 µM
- % SPFeff (residual percentage of SPF in vitro) [3]: 96.00%
- % UVA-PFeff (residual percentage of UVA-PF) [3]: 85.50%
- SPF [3]: 11.77
- UVA/UVB [3]: 1.49
- UVAPF [3]: 10.08
- λc [3]: 377 nm
